Experiment [1] in a line: Cytotoxicity against human HCT116 cells assessed as growth inhibition after 72 hrs by MTT assay. The format is functional, cell-based. The conditions noted are these: HCT-116, 72 h. On the technique in general: Tetrazolium dyes change colour on reduction, which living cells bring about.
The next experiment has as its system MDA-MB-231. Nature of the experiment: Cytotoxicity against human MDA-MB-231 cells assessed as growth inhibition after 72 hrs by MTT assay. The conditions noted are these: MDA-MB-231, 72 h. The class given is functional, cell-based.
The next experiment relates to A549. Nature of the experiment: Cytotoxicity against human A549 cells assessed as growth inhibition after 72 hrs by MTT assay. The format is functional, cell-based. The conditions noted are these: A549, 72 h.
Experiment [2] deals with HCT-116. The experiment is described as follows: Induction of apoptosis in human HCT116 cells assessed as apoptotic cells at 5 uM after 48 hrs by annexin V-FITC/propidium iodide staining based flow cytometric analysis. The class given is functional. In general terms: A flow cytometer gives signals particle by particle.
The subject of experiment [3] is HCT-116. Nature of the experiment: Induction of apoptosis in human HCT116 cells assessed as apoptotic cells at 5 uM after 24 hrs by annexin V-FITC/propidium iodide staining based flow cytometric analysis. The class given is functional.

For orientation: IC50 means the concentration that inhibits the measured activity by half. In the case of `CC1=NN(c2ccccc2)C(=O)[C@]12C(=O)C=CC[C@H]2c1cccc(C)c1`, the figures for the IC50 (in experiment [1]; in the experiment on MDA-MB-231; with A549) were 9.58 µM, 10.3 µM and 13.1 µM, respectively.
In the case of `CC1=NN(c2ccccc2)C(=O)[C@@]12C(=O)C=CC[C@@H]2c1ccccc1` (racemic), the IC50 came out at 6.07 µM in experiment [1], 9.31 µM in the experiment on MDA-MB-231 and 7.77 µM in the experiment with A549.
With `CC1=NN(c2ccc(C)cc2)C(=O)[C@]12C(=O)C=CC[C@@H]2c1ccc(C)cc1` (racemic), the IC50 was 14.6 µM in experiment [1], 57.2 µM in the experiment with MDA-MB-231 and 54.2 µM in the experiment with A549.
For `CC1=NN(c2ccc(C)cc2)C(=O)[C@@]12C(=O)C=CC[C@H]2c1ccc(C)cc1`, the figures for the IC50 (in experiment [1]; in the experiment on MDA-MB-231; in the experiment with A549) were 3.62 µM, 9.2 µM and 6.79 µM, respectively.
Regarding `CC1=NN(c2ccccc2)C(=O)[C@]12C(=O)C=CC[C@@H]2c1cccc(C)c1` (racemic), the IC50 in experiment [1] turned out to be 5.49 µM; with MDA-MB-231 it was 8 µM; in the experiment on A549, 4.77 µM.
In the same order, the values of `CC1=NN(c2ccccc2)C(=O)[C@@]12C(=O)C=CC[C@@H]2c1ccccc1[N+](=O)[O-]` (racemic) are 66.8 µM, 68.3 µM and 66.4 µM.
`CC1=NN(c2ccccc2)C(=O)[C@@]12C(=O)C=CC[C@@H]2c1ccc(C)cc1` (racemic): the IC50 in experiment [1] came out at 5.22 µM; with MDA-MB-231 it was 7.42 µM; in the experiment with A549 it was 6.57 µM.
In the same order, the values of `CC1=NN(c2ccccc2)C(=O)[C@@]12C(=O)C=CC[C@@H]2c1cccc(C)c1` (racemic) are 3.8 µM, 6.8 µM and 4.51 µM.
Taken in the same sequence, the figures for `COc1ccccc1[C@H]1CC=CC(=O)[C@@]12C(=O)N(c1ccccc1)N=C2C` (racemic) were 13.9 µM, 15.7 µM and 18.7 µM.
Taken in the same sequence, the figures for `CC1=NN(c2ccccc2)C(=O)[C@]12C(=O)C=CC[C@@H]2c1ccccc1` (racemic) were 6.04 µM, 9.08 µM and 9.18 µM.
With `CC1=NN(c2ccccc2)C(=O)[C@@]12C(=O)C=CC[C@H]2c1ccccc1`, the IC50 in experiment [1] turned out to be 4.4 µM; in the experiment with MDA-MB-231 it was 5.5 µM; in the experiment with A549 it was 3.77 µM.
Taken in the same sequence, the figures for `CC1=NN(c2ccccc2)C(=O)[C@@]12C(=O)C=CC[C@H]2c1cccc(C)c1` were 5.82 µM, 6.61 µM and 3.5 µM.
Taken in the same sequence, the figures for `CC1=NN(c2ccc(C)cc2)C(=O)[C@]12C(=O)C=CC[C@H]2c1ccc(C)cc1` were 3.53 µM, 8.28 µM and 7.52 µM.
In the same order, the values of `CC1=NN(c2ccccc2)C(=O)[C@]12C(=O)C=CC[C@H]2c1ccc(C)cc1` are 4.22 µM, 5.72 µM and 2.89 µM.
As to `CC1=NN(c2ccccc2)C(=O)[C@]12C(=O)C=CC[C@@H]2c1ccc(C)cc1` (racemic), the IC50 in experiment [1] worked out at 5.8 µM; in the experiment on MDA-MB-231, 6.24 µM; with A549 it was 8.6 µM.
As to `CC1=NN(c2ccccc2)C(=O)[C@@]12C(=O)C=CC[C@H]2c1ccc(C)cc1`, the IC50 in experiment [1] is 5.21 µM; with MDA-MB-231, 8.3 µM; with A549, 6.09 µM.
In the same order, the values of `CC1=NN(c2ccc(C)cc2)C(=O)[C@@]12C(=O)C=CC[C@@H]2c1ccc(C)cc1` (racemic) are 4.15 µM, 8.12 µM and 4.32 µM.
Take `COc1ccccc1[C@@H]1CC=CC(=O)[C@]12C(=O)N(c1ccccc1)N=C2C`: the figures for the half-maximal inhibitory concentration (IC50) (in experiment [1]; in the experiment with MDA-MB-231; in the experiment with A549) were 2.85 µM, 5.14 µM and 3.96 µM, respectively. For the same compound, the Activity in the experiment on HCT-116 [2] is 72.13%; with HCT-116 [3] it was 68.44%.
Regarding `CC1=NN(c2ccccc2)C(=O)[C@]12C(=O)C=CC[C@H]2c1ccccc1`, the figures for the IC50 (in experiment [1]; with MDA-MB-231; in the experiment on A549) were 5.3 µM, 5.8 µM and 8.29 µM, respectively.
For `O=C(CCCCCCC(=O)Nc1ccccc1)NO` [VORINOSTAT], the Activity worked out at 62.4% in the experiment on HCT-116 [2] and 42.2% in the experiment on HCT-116 [3].
Consider `CC1=NN(c2ccccc2)C(=O)[C@]12C(=O)C=CC[C@H]2c1ccccc1[N+](=O)[O-]`, for which the values for the IC50 (in experiment [1]; in the experiment on MDA-MB-231; with A549) were 11.2 µM, 32.4 µM and 12.9 µM, respectively.
On to `COc1cccc2c1C(=O)c1c(O)c3c(c(O)c1C2=O)C[C@@](O)(C(=O)CO)C[C@@H]3O[C@H]1C[C@H](N)[C@H](O)[C@H](C)O1` [DOXORUBICIN], for which the IC50 with MDA-MB-231 was 0.45 µM.

For the origin of these results see ChEMBL document CHEMBL3785052, “Novel spiropyrazolone antitumor scaffold with potent activity: Design, synthesis and structure-activity relationship” (Eur J Med Chem, 2016).
